One test deals with leukotriene C4. The test is described as follows: Release of leukotriene C4 induced by PMA and A23187 in HMC-1 (enzyme immunoassay). It is filed as cell-based. Particulars: Homo sapiens, HMC1; HMC-1, homoisoflavanone 2 μg/mL or mizolastine 10 μg/mL, 50 nM PMA + 1 μM A23187, 21 hours (FIG. 6b). An excerpt:
(§1) Phorbol 12-myristate 13-acetate and A23187 lead to degranulation of human mast cells (HMC), causing the mast cells to release not only their histamine or serotonin but also newly produced inflammatory factors such as pro-inflammatory cytokines, prostaglandins and leukotrienes. It was investigated whether homoisoflavanone has anti-inflammatory effect in mast cells as in Examples 4 and 5. In order to investigate the effect of homoisoflavanone on the release of leukotriene induced by phorbol 12-myristate 13-acetate and A23187 in HMC-1, 1×10^6 HMC-1 cells were inoculated on a 100-mm culture dish and cultured in Iscove's modified Dulbecco's medium (IMDM, GIBCO) containing 10% FBS for 48 hours. Then, after treating with homoisoflavanone at 2 μg/mL or with mizolastine at 10 μg/mL for comparison for 1 hour, the cells were treated with 50 nM phorbol 12-myristate 13-acetate and 1 μM A23187 to induce release of leukotriene, and then further cultured for 21 hours. Then, the supernatant was collected and the quantity of released leukotriene B4 and C4 was measured using a leukotriene B4, C4 enzyme immunoassay kit (Sapphire Bioscience, Australia).

For the next test, the system named is leukotriene B4. The test is described as follows: Release of leukotriene B4 induced by PMA and A23187 in HMC-1 (enzyme immunoassay). It is filed as cell-based, human.
Excerpt: as §1

Where only a bound is given, the exact number is not on record here.

In the case of `CN(c1nccc(=O)[nH]1)C1CCN(c2nc3ccccc3n2Cc2ccc(F)cc2)CC1` [mizolastine, reference compound], the inhibition at 10 µg/mL is at least 90% in the test with leukotriene C4 and 20% in the test with leukotriene B4 (Homo sapiens, HMC1, HMC-1, homoisoflavanone 2 μg/mL or mizolastine 10 μg/mL, 50 nM PMA + 1 μM A23187, 21 hours (FIG. 6a)). Also, the “leukotriene B4 release when treated alone, versus non-treated group” value with leukotriene B4 (HMC-1, homoisoflavanone 2 μg/mL or mizolastine 10 μg/mL alone, without PMA/A23187 (FIG. 6a)) is reported as “no appreciable difference”.

The record behind these values is patent US20110207807A1, “NEW USE FOR HOMOISOFLAVONE OR A SALT THEREOF” (Catholic University Industry Academy Cooperation Foundation, priority 2008, published 2011).
